From patent US9540325B2, “N1-cyclic amine-N5-substituted phenyl biguanide derivatives, methods of preparing the same and pharmaceutical composition comprising the same” (Immunomet Therapeutics, Inc., priority 2011, dated 2017)

Legend:
AMPKα = test: Measurement of AMPK activation effect (AMPKα Thr172 phosphorylation immunoassay) in MCF7 cells; assay type: cell-based, human; details: 24 hours; for AMPK activation effect at 10 μM (%) / AMPK activation effect at 50 μM (%): relative to untreated cells; for AMPK activation effect AC150: concentration at which AMPK activation reached 150%
Method in brief: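 MCF7 cells in DMEM/10% FBS were treated 24 h with derivatives at 5, 10 and 50 μM (metformin hydrochloride control, 0.05–10 mM). AMPKα Thr172 phosphorylation was measured by immunoassay on 20 μg lysate. AC150 (concentration giving 150% activation) came from concentration–response curves, with activation also reported at fixed concentrations.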

HCT116 cells = test: Measurement of effect of inhibiting cancer cell proliferation (MTT); assay type: cell-based, human; details: for inhibition at 100 µM: HCT-116, 100 μM, read-out: Cell Growth Inhibition (%) at 100 μM
Method in brief: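 HCT116 cells (~5,000/well, DMEM with 10% FBS) treated 48 h with compound at 0.39–100 μM, metformin hydrochloride control at 0.1–25 mM. Viability by MTT (3 h, formazan in DMSO, A560) relative to untreated wells; GIC50 from the viability curve, also viability at 100 μM.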

[1] = tested on: MCF7 cells (breast cancer stem cell, mammosphere); test: Measurement of effect of inhibiting mammosphere formation; assay type: cell-based, human; details: MCF7, 8 days; for Number of Mammospheres: size 50 um or more; for inhibition at 0.1 µM / inhibition at 1 µM / inhibition at 5 µM / inhibition at 10 µM: Homo sapiens, 192 h, vs untreated, read-out: Mammosphere formation inhibition rate (%)
Source text: The cancer stem cells refer to cancer cells that have self-regeneration or differentiation capacity which is characteristically innate to stem cells. Here, the cancer stem cells show resistance to conventional anticancer therapy and poor prognosis. Therefore, the biguanide derivative has an effect of inhibiting cancer recurrence by inhibiting formation and proliferation of cancer stem cells, especially, breast cancer stem cells (mammosphere). Accordingly, the effect of the biguanide derivative of inhibiting breast cancer stem cell (mammosphere) formation was measured in an MCF7 cell line derived from human breast cancer forming mammospheres, and simple experimental methods are described, as follows.
MCF7 cells derived from human breast cancer were cultured (culture temperature: 37° C., pH: 7.0 to 7.4) in a DMEM medium supplemented with 10% (v/v) fetal bovine serum (commercially available from Gibco Life Technologies (US)) so that the MCF7 cells could grow to approximately 80% confluency and used in an experiment to determine an ability to form mammospheres. After MCF7 cells were made to single cells and the number of cell was counted, MCF7 cells were put in to a 24-well plate at 2,000 cells/well. […] Also, a culture media for forming mammospheres was prepared so that a serum-free DMEM/F12 medium could include 2% B27 (commercially available from Invitrogen), 20 ng/ml EGF (commercially available from Sigma), 5 μg/ml insulin (commercially available from Sigma) and 1 μg/ml hydrocortisone (commercially available from Sigma). Cells were cultured in a CO2 incubator for 24 hours and treated with each of the compounds synthesized in the examples at contents of 0.1 μM, 1 μM, 5 μM and 10 μM. Then, the cultured cells were added to the culture media for forming mammospheres so that a final volume of the culture broth could be adjusted to 1 ml. The cells were treated with the same concentrations of phenformin hydrochloride as the control and cultured in a CO2 incubator for 8 days. Thereafter, the mammosphere-forming efficiency and size of the cells were observed. After 8 days, the number of mammospheres having a size of 50 um or more was determined to calculate the mammosphere-forming efficiency (MFE (%)). The MFE (%) is calculated according to the following Equation 1.
When the cells were cultured for 8 days, MFE (%) of the cells on a plate treated with the phenformin hydrochloride and the compounds synthesized in the examples was compared with MFE (%) of the cells on a plate that was not treated with the compounds. The results are listed as the mammosphere formation inhibition rate (%) in the following Table 4, and the mammosphere-forming efficiencies of the respective compounds are shown in FIG. 1.

| SMILES | AMPK activation effect at 10 μM (%) (AMPKα) | AMPK activation effect at 50 μM (%) (AMPKα) | AMPK activation effect AC150 (AMPKα) | inhibition at 100 µM (HCT116 cells; Homo sapiens, 48 hours) | GI50 (HCT116 cells; Homo sapiens, HCT-116, 48 h) | MFE (%) (mammosphere-forming efficiency) ([1]; 0.1 μM) | Number of Mammospheres ([1]; 0.1 μM) | MFE (%) (mammosphere-forming efficiency) ([1]; 1 μM) | Number of Mammospheres ([1]; 1 μM) | MFE (%) (mammosphere-forming efficiency) ([1]; 5 μM) | Number of Mammospheres ([1]; 5 μM) | MFE (%) (mammosphere-forming efficiency) ([1]; 10 μM) | Number of Mammospheres ([1]; 10 μM) | inhibition at 0.1 µM ([1]; 0.1 μM) | inhibition at 1 µM ([1]; 1 μM) | inhibition at 5 µM ([1]; 5 μM) | inhibition at 10 µM ([1]; 10 μM) | melting point | GI50 (HCT116 cells; 48 hours, hydrochloride) |
| --- | --- | --- | --- | --- | --- | --- | --- | --- | --- | --- | --- | --- | --- | --- | --- | --- | --- | --- | --- |
| Cl.N=C(NC(=N)N1CCCCC1)Nc1cccc(Cl)c1 [Example 20, N1-piperidine-N5-(3-chloro)phenyl biguanide hydrochloride] | 236% | 558% | 3.2 µM | 97.5% | 48.2 µM | 3.6% | 72 | 5.2% | 103 | 3.8% | 75 | 1.5% | 29 | 30.1% | 0% | 27.2% | 71.8% | 172 to 174 °C |  |
| Cl.N=C(NC(=N)N1CCCCC1)Nc1ccc(C(F)(F)F)cc1 [Example 27, N1-piperidine-N5-(4-trifluoromethyl)phenyl biguanide hydrochloride] | 455% |  | 2.4 µM | 97.7% | 6.7 µM | 5.2% | 103 | 5.2% | 105 ± 16.3 | 3.0% | 61 ± 3.5 | 1.6% | 32 | 0% | -1.5% | 41.3% | 68.9% | 273 to 274 °C |  |
| Cl.N=C(NC(=N)N1CCCC1)Nc1ccc(C(F)(F)F)cc1 [Example 26, N1-pyrrolidine-N5-(4-trifluoromethyl)phenyl biguanide hydrochloride] | 255% | 642% | 3.1 µM | 97.6% |  | 5.3% | 105 | 5.6% | 112 | 6.0% | 120 | 3.6% | 72 ± 11.3 | -11.7% | -8.7% | -16.5% | 30.1% | 283 to 284 °C | 22.7 µM |
| Cl.N=C(NC(=N)N1CCCCCC1)Nc1cccc(Cl)c1 [Example 21, N1-azepane-N5-(3-chloro)phenyl biguanide hydrochloride] | 211% | 653% | 4.8 µM | 97% | 41.5 µM | 5.8% | 115 | 5.3% | 105 | 3.6% | 71 ± 4.2 | 2.3% | 46 ± 2.1 | 30.1% | -1.9% | 31.1% | 55.8% | 213 to 215 °C |  |
